These results are taken from article PMC8154419, “Druggable Hot Spots in the Schistosomiasis Cathepsin B1 Target Identified by Functional and Binding Mode Analysis of Potent Vinyl Sulfone Inhibitors” (ACS Infectious Diseases, 2020).

Where “and” joins values, the source holds several entries; their conditions need not be identical. Identical values can stand only once.

The target in this assay is SmCB1 (Schistosoma mansoni, UniProt Q8MNY2, T185A/T300A). The assay is described as follows: SmCB1 kinetic inhibition assay (IC50) with fluorogenic substrate Cbz–Phe–Arg–AMC. In kind it is biochemical. The settings on record: recombinant SmCB1, Cbz–Phe–Arg–AMC, pH 5.5; mean ± SE, triplicate; n.i.: no significant inhibition at 100 μM. An excerpt: Thirty-four peptidomimetic vinyl sulfone analogs (including vinyl sulfonamides and vinyl sulfonate esters) were explored as potential inhibitors of SmCB1 to infer the structural requirements of the inhibitor-binding subsites in the enzyme active site cleft. The compound scaffold is defined by positions P3 through P1′, and the substitutions were selected to provide a high diversity at P2 and P1′ (Table 1). These two positions were recently reported to display large differences in the subsite interaction energy in response to their structural modifications.[10] The compounds were screened in vitro against recombinant SmCB1, and their IC50 values were determined using a kinetic inhibition assay with the fluorogenic substrate Cbz–Phe–Arg–AMC.
Inhibition measurements were performed in triplicates in 96-well microplates (100 μL assay volume) at 37 °C. […] The kinetics of product release was continuously monitored in an Infinite M1000 microplate reader (Tecan) at excitation and emission wavelengths of 360 and 465 nm, respectively. The IC50 values were determined by nonlinear regression using GraFit software. To determine the inhibition constant k2nd, the enzyme (40 pM SmCB1 or 60 pM HuCB) was added to a mixture of the fluorogenic substrate Cbz–Phe–Arg–AMC (20 μM for SmCB1 and 33 μM for HuCB) and an inhibitor (0–1 μM) in the assay buffer under assay conditions as above. The hydrolysis of substrate was monitored for 30 min in a microplate reader as described above. An observed rate constant, kobs, was calculated at each inhibitor concentration by fitting the progress curve to the equation P = vi/kobs(1 – e^–kobst), where P is the product formation, vi is the initial velocity, and t is the reaction time. For both enzymes, kobs varied linearly with the inhibitor concentration showing that the dependence of kobs on the inhibitor concentration is nonsaturating. […] The second order rate constant, k2nd, was determined by fitting to the linear equation kobs = (k2nd[I])/(1 + [S]/KM), where [S] is the substrate concentration, [I] is the inhibitor concentration, and KM is the Michaelis–Menten constant. KM values determined for SmCB1 and HuCB were 25 and 38 μM, respectively.

Chain of SmCB1 (Q8MNY2 87-340 T185A/T300A): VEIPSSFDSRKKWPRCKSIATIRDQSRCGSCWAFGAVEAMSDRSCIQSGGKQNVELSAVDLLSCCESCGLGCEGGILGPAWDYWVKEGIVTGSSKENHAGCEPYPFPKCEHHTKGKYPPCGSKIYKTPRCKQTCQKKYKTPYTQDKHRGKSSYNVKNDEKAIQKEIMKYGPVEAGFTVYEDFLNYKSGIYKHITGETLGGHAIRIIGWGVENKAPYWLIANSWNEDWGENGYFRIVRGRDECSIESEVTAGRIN

By IC50 is commonly meant the midpoint of a concentration-inhibition curve. Regarding `CCCC[C@@H](/C=C/S(=O)(=O)c1ccccc1)NC(=O)[C@@H](N)Cc1cc(I)c(O)c(I)c1` [CRA-373], the IC50 came out at 425 ± 46 nM. For the compound `O=C(N[C@H](/C=C/S(=O)(=O)c1ccccc1)CCc1ccccc1)[C@H](Cc1ccccc1)NC(=O)N1CCC(N2CCOCC2)CC1` [CRA-554], the IC50 was found to be 6 ± 0.89 nM. Same read-out and setting: next, `CCCC[C@@H](/C=C/S(=O)(=O)c1ccccc1)NC(=O)[C@H](Cc1ccccc1)NC(=O)N1CCC(N2CCOCC2)CC1` [CRA-553]: 13.2 ± 1.3 nM; `O=C(N[C@@H](Cc1ccccc1)C(=O)N[C@H](/C=C/S(=O)(=O)c1ccccn1)CCc1ccccc1)OCc1ccccc1` [WRR-255]: 1.5 ± 0.13 nM.

As for `C[C@@H](/C=C/S(=O)(=O)Oc1ccccc1)NC(=O)[C@H](Cc1ccccc1)NC(=O)OCc1ccccc1` [WRR-199], the IC50 came to 2.55 ± 0.2 nM.

Consider `O=C(N[C@@H](Cc1cc(I)c(O)c(I)c1)C(=O)N[C@H](/C=C/S(=O)(=O)c1ccccc1)CCc1ccccc1)c1ccc(N2CCOCC2)cc1` [CRA-422], for which the 50% inhibitory concentration (IC50) was found to be 665 ± 98 nM. Still for that read-out and setting: as for `C[C@@H](/C=C/S(=O)(=O)NCc1ccc(F)cc1F)NC(=O)[C@H](Cc1ccccc1)NC(=O)OCc1ccccc1` [WRR-197], the figure is 1130 ± 120 nM; as for `CCC[C@@H](/C=C/S(=O)(=O)c1ccccc1)NC(=O)[C@H](Cc1ccccc1)NC(=O)N1CCC(N2CCOCC2)CC1` [CRA-446], 44.6 ± 6.1 nM. Still for that read-out and setting: as for `CN1CCN(C(=O)N[C@@H](Cc2ccccc2)C(=O)N[C@H](/C=C/S(=O)(=O)Oc2ccc(F)cc2)CCc2ccccc2)CC1` [WRR-353], the figure is 119 ± 16 nM; as for `CCC[C@@H](/C=C/S(=O)(=O)c1ccccc1)NC(=O)[C@H](Cc1ccc2ccccc2c1)NC(=O)N1CCC(N2CCOCC2)CC1` [CRA-547], ~40 nM and 39.2 nM.

On to `CCC[C@@H](/C=C/S(=O)(=O)c1ccccc1)NC(=O)[C@H](Cc1ccc(F)cc1)NC(=O)N1CCC(N2CCOCC2)CC1` [CRA-552], for which the IC50 was 202 ± 25 nM. The same measure, in the same setting: as for `CNS(=O)(=O)/C=C/[C@H](C)NC(=O)[C@H](Cc1ccccc1)NC(=O)OCc1ccccc1` [WRR-206], the figure is 93.7 ± 7.3 nM; as for `C[C@@H](/C=C/S(=O)(=O)NCc1ccc(Cl)cc1)NC(=O)[C@H](Cc1ccccc1)NC(=O)OCc1ccccc1` [WRR-201], 541 ± 76 nM; as for `O=C(N[C@H](/C=C/S(=O)(=O)c1ccccc1)CCc1ccccc1)[C@H](CCS(=O)(=O)c1ccccc1)NC(=O)N1CCOCC1` [CRA-009], 186 ± 19 nM. The same measure, in the same setting: as for `C[C@@H](/C=C/S(=O)(=O)NCc1ccc(F)cc1)NC(=O)[C@H](Cc1ccccc1)NC(=O)OCc1ccccc1` [WRR-196], the figure is 1250 ± 173 nM.

With `CCOC(=O)C1CCN(C(=O)N[C@@H](CC2CCCCC2)C(=O)N[C@H](/C=C/S(=O)(=O)c2ccccc2)CCc2ccccc2)CC1` [WRR-436], the IC50 stood at 72.1 ± 9.1 nM.

Consider `CCCC[C@@H](/C=C/S(=O)(=O)c1ccccc1)NC(=O)[C@H](Cc1cc(I)c(O)c(I)c1)NC(=O)OC(C)(C)C` [CRA-372], for which the IC50 came out at 6250 ± 322 nM. Same read-out and setting: next, `O=C(N[C@H](/C=C/S(=O)(=O)c1ccccc1)CCc1ccccc1)[C@H](CS(=O)(=O)Cc1ccccc1OC(F)F)NC(=O)N1CCOCC1` [CRA-012]: 477 ± 43 nM; `O=C(N[C@H](/C=C/S(=O)(=O)c1ccccc1)CCc1ccccc1)[C@H](CS(=O)(=O)Cc1ccccc1)NC(=O)N1CCOCC1` [CRA-891]: 212 ± 10 nM. Still for that read-out and setting: next, `C[C@@H](/C=C/S(=O)(=O)NCCc1ccccc1)NC(=O)[C@H](Cc1ccccc1)NC(=O)OCc1ccccc1` [WRR-186]: 629 ± 57 nM. Take `CCC[C@@H](/C=C/S(=O)(=O)c1ccccc1)NC(=O)[C@H](Cc1c(F)cccc1F)NC(=O)c1ccc(-c2ccccc2Cl)cc1` [CRA-845]: the “Inhibition IC50” value is on record as “n.i”.

Take `O=C(N[C@@H](Cc1ccccc1)C(=O)N[C@H](/C=C/S(=O)(=O)Oc1ccc([N+](=O)[O-])cc1)CCc1ccccc1)OCc1ccccc1` [WRR-258]: the IC50 is 50.1 ± 4.9 nM. On the same count and under the same terms, as for `O=C(N[C@@H](Cc1ccccc1)C(=O)N[C@H](/C=C/S(=O)(=O)CCc1ccccc1)CCc1ccccc1)OCc1ccccc1` [WRR-257], the figure is 9520 ± 607 nM; as for `CCC[C@@H](/C=C/S(=O)(=O)c1ccccc1)NC(=O)[C@H](CSCc1ccccn1)NC1=NS(=O)(=O)c2ccccc21` [CRA-393], 3450 ± 346 nM. Same read-out and setting: next, `CCC[C@@H](/C=C/S(=O)(=O)c1ccccc1)NC(=O)[C@H](Cc1ccccc1Cl)NC1=NS(=O)(=O)c2ccccc21` [CRA-383]: 10000 to 100000 nM; `CCCC[C@@H](/C=C/S(=O)(=O)c1ccccc1)NC(=O)[C@H](Cc1ccccc1)NC(=O)N1CCC(N2CCCCC2)CC1` [CRA-892]: 7.5 ± 0.58 nM.

Turning to `CCC[C@@H](/C=C/S(=O)(=O)c1ccccc1)NC(=O)C1(NC(=O)N2CCN(C)CC2)CCCCC1` [CRA-555], the “Inhibition IC50” value is reported as “n.i”. As for `CCC[C@@H](/C=C/S(=O)(=O)c1ccccc1)NC(=O)[C@H](CC1CCCCC1)NC=NS(=O)(=O)c1ccccc1` [CRA-359], the IC50 was found to be 9990 ± 280 nM.
